The target in experiment [1] is Receptor tyrosine-protein kinase erbB-4 (Homo sapiens, UniProt Q15303). The experiment can be described thus: Selectivity interaction (KinomeScan (DiscoverX)) EUB0000595a ERBB4. The settings on record: at 10 µM.
Experiment [2] has as its target Tyrosine-protein kinase Yes (Homo sapiens) (UniProt P07947). The experiment can be described thus: Selectivity interaction (KinomeScan (DiscoverX)) EUB0000595a YES1. The note with it: at 10 µM.
For experiment [3], the target named is T1, Serine/threonine-protein kinase Nek3 (Homo sapiens) (UniProt P51956).
T1 sequence (whole entry): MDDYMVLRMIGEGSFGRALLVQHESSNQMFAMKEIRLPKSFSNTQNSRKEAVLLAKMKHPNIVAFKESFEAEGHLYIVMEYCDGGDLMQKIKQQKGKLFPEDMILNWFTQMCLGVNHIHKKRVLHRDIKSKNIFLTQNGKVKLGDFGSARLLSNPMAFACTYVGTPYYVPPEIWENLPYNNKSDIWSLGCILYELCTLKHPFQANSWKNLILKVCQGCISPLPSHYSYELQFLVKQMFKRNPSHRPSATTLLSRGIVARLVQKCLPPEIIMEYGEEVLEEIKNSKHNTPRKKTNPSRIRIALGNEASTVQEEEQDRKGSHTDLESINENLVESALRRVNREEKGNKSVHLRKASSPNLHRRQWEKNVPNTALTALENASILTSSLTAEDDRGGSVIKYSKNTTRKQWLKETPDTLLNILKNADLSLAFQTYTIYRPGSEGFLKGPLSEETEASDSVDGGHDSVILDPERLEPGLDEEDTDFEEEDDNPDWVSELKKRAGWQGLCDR
Nature of the experiment: Selectivity interaction (KinomeScan (DiscoverX)) EUB0001619a NEK3. The note with it: at 1 µM.

Experiment [4] deals with T2, Aurora kinase C (Homo sapiens) (UniProt Q9UQB9).
T2 sequence (whole entry): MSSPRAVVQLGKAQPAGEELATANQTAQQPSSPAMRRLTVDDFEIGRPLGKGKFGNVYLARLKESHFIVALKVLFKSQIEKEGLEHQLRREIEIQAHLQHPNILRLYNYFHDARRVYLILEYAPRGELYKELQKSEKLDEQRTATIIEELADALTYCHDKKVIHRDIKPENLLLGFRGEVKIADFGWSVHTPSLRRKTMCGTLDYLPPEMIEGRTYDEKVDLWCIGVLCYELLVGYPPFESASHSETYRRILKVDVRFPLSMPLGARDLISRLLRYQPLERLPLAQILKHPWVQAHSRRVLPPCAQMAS
The experiment can be described thus: Selectivity interaction (Kinase panel (Invitrogen)) EUB0000639a AURKC. The note with it: at 200 nM.

Experiment [5] addresses T3, Mitogen-activated protein kinase kinase kinase kinase 2 (Homo sapiens) (UniProt Q12851).
T3 sequence (whole entry): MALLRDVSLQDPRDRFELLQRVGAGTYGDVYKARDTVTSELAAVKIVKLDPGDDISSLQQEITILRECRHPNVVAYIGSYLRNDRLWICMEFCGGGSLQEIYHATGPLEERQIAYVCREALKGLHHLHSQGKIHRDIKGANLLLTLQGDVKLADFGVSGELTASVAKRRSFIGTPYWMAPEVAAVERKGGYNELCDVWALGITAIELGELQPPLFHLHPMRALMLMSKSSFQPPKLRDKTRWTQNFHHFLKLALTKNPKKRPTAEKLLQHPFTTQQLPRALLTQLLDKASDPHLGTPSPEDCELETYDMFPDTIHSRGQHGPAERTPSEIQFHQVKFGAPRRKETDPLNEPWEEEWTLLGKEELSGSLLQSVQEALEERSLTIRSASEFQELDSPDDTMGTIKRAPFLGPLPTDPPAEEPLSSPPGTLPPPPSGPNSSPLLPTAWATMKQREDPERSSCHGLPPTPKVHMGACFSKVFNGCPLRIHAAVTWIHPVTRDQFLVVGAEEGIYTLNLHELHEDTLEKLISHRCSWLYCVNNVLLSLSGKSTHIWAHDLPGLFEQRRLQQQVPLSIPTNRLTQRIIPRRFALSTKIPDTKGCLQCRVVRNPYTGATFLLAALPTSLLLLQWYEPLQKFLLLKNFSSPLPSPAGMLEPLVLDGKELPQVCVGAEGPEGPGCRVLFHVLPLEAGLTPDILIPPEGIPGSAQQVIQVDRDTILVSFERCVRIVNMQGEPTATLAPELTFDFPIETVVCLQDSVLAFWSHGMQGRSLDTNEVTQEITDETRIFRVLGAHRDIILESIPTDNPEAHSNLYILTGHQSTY
Nature of the experiment: Selectivity interaction (Kinase panel (Invitrogen)) EUB0000639a MAP4K2. The note with it: at 200 nM.

The target of experiment [6] is Tyrosine-protein kinase CSK (Homo sapiens) (UniProt P41240). The experiment can be described thus: Selectivity interaction (KinomeScan (DiscoverX)) EUB0000045b CSK.
Tyrosine-protein kinase CSK (Homo sapiens), sequence (P41240 2-450 limits assumed): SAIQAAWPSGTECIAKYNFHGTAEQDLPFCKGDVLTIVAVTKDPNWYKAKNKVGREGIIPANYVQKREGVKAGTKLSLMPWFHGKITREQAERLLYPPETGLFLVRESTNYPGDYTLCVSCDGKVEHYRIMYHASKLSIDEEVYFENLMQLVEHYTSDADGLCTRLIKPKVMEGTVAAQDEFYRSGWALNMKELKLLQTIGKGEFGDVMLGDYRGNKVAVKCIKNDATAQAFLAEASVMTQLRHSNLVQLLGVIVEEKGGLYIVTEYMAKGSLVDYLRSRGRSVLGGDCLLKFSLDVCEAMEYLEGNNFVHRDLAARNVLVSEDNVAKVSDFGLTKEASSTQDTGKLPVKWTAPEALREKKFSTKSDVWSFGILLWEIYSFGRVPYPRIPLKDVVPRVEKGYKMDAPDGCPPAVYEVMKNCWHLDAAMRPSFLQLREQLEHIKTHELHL
In experiment [7] the target is Tyrosine-protein kinase BTK (Homo sapiens, UniProt Q06187). Nature of the experiment: Selectivity interaction (ProQinase) EUB0000171b BTK.
Tyrosine-protein kinase BTK, sequence (Q06187 whole entry): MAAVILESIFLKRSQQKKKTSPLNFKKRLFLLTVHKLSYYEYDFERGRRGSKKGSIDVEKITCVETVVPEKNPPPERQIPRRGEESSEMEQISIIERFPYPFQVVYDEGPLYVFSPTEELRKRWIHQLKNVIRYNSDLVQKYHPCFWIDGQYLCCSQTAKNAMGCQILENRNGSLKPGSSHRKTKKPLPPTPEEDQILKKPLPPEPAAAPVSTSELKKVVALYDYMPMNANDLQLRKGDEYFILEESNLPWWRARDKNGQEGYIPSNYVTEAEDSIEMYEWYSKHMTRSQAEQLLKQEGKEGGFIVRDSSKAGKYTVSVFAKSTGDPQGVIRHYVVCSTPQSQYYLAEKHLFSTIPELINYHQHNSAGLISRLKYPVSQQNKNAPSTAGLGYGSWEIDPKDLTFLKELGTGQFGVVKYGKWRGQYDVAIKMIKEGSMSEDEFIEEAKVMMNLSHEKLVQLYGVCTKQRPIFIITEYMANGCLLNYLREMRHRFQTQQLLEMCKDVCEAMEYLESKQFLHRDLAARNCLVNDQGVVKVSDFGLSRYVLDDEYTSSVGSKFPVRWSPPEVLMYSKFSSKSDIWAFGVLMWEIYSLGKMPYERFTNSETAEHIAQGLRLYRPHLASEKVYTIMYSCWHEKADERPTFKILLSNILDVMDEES
Another experiment deals with Ephrin type-A receptor 4 (Homo sapiens, UniProt P54764). The experiment can be described thus: Selectivity interaction (KinomeScan (DiscoverX)) EUB0001049a EPHA4. The note with it: at 1 µM.
Experiment [8] has as its target Vascular endothelial growth factor receptor 2 (Homo sapiens, UniProt P35968). Nature of the experiment: Selectivity interaction (NovaScreen assay) EUB0001542aTs KDR.
Experiment [9] concerns the target Mitogen-activated protein kinase kinase kinase 20 (Homo sapiens) (UniProt Q9NYL2). The experiment can be described thus: Selectivity interaction (Kinase panel (KiNativ target engagement assay in Jurkat cells)) EUB0001635a MAP3K20. The note with it: Selectivity number of off-targets 0.0, Selectivity number of targets 233.0, Source Knowledge https://www.sciencedirect.com/science/article/pii/S2451945619300674?via%3Dihub, at 1 µM. Type of experiment: cell-based.

Here are results for eight compounds from ChEMBL document CHEMBL5465560, “Selectivity Literature for EUbOPEN Chemogenomic Library” (2024).

Each structure is given as a SMILES string.

Receptor tyrosine-protein kinase erbB-4, sequence (Q15303 whole entry): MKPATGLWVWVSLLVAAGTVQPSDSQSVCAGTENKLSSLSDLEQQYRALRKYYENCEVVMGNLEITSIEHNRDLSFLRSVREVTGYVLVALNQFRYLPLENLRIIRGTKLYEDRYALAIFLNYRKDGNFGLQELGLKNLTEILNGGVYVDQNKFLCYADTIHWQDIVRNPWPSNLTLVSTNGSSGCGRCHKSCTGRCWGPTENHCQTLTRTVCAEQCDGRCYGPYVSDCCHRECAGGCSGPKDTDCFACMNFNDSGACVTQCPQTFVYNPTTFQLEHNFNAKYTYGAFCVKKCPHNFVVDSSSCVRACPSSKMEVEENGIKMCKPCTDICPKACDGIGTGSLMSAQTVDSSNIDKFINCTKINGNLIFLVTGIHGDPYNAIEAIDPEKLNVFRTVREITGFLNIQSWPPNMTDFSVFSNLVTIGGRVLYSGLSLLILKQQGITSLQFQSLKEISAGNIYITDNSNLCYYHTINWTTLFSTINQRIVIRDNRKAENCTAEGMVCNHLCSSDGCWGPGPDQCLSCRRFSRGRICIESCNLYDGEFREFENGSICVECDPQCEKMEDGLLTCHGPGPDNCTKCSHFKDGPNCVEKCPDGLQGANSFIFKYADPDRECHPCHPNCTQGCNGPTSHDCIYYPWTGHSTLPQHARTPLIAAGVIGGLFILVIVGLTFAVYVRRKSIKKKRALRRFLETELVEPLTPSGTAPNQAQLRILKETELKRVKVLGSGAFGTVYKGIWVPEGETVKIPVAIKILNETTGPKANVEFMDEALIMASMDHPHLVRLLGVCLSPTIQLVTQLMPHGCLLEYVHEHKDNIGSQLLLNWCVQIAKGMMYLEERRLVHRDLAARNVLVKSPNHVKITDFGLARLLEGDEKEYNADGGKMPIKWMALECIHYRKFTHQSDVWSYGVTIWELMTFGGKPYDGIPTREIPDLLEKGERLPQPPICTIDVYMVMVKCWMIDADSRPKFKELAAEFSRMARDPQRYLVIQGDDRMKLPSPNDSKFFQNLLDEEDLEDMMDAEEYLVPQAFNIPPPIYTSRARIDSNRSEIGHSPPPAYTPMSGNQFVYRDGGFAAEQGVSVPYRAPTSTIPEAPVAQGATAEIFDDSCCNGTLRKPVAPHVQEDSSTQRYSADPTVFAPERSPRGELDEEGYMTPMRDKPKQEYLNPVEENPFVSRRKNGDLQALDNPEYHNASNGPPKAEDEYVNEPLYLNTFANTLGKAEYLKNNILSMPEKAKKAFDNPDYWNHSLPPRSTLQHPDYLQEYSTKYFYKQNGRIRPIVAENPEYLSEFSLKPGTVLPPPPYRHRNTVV
Tyrosine-protein kinase Yes (Homo sapiens), sequence (P07947 2-543 limits assumed): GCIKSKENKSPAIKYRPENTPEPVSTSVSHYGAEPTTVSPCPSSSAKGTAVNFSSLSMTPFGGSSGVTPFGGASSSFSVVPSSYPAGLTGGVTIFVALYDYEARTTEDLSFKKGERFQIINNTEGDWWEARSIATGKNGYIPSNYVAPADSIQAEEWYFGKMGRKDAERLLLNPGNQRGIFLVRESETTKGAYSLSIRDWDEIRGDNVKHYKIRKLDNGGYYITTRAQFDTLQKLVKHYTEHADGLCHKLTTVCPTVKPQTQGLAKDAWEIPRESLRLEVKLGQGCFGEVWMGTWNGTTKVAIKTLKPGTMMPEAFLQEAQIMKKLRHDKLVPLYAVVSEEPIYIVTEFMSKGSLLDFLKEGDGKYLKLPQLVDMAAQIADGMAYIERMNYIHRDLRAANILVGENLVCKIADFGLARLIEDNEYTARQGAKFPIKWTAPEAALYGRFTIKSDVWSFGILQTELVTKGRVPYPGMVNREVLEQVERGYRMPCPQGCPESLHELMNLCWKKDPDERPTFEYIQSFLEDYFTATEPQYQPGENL
Vascular endothelial growth factor receptor 2, sequence (P35968 whole entry): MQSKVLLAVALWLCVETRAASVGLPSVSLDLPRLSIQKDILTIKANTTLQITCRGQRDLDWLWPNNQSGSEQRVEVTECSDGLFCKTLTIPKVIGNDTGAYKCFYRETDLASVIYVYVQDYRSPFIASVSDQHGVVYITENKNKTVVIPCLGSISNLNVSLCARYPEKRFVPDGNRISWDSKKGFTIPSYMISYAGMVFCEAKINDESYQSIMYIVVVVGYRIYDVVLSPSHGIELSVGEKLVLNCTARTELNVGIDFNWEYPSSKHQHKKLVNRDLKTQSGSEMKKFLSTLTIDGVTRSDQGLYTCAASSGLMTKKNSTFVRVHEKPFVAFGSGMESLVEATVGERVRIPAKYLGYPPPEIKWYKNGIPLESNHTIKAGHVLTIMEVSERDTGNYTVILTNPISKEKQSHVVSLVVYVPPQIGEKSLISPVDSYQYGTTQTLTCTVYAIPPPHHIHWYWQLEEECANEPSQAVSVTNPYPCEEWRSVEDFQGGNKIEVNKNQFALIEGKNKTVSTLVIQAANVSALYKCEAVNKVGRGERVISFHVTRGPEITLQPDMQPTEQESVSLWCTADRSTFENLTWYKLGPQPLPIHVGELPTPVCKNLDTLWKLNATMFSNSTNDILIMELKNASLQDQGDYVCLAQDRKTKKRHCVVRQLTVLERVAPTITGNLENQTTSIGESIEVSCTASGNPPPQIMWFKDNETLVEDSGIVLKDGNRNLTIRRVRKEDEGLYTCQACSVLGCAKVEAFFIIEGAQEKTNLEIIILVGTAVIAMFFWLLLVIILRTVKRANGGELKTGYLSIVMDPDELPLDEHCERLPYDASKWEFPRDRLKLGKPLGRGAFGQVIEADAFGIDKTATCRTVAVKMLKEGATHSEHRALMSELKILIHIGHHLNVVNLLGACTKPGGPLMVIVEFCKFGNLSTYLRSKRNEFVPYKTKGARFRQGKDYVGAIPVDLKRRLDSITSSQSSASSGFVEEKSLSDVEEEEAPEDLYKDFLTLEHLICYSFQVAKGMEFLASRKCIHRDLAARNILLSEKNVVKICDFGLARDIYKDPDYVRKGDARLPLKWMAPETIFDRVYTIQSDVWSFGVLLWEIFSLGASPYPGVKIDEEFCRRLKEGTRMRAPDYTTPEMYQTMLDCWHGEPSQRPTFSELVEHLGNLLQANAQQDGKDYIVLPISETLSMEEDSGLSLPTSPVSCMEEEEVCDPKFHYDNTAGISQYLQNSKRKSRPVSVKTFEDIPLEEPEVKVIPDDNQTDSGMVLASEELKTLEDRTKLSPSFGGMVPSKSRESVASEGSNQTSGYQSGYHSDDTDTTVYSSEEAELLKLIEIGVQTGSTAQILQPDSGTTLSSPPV

As for `COCC(=O)NC/C=C/c1ccc2ncnc(Nc3ccc(Oc4ccc(C)nc4)c(C)c3)c2c1` [CP-724714], the values for the % of control in [1] and in [2] were 0.9% and 65%, respectively.
In [3], `N#Cc1cccc(-c2c[nH]c3ncnc(N4CCOCC4)c23)c1` had a % of control of 100%.
Consider `CC[C@@H]1[C@H](F)C(=O)N[C@@H]1COc1nccc2cc(C(N)=O)c(OC)cc12` [ZIMLOVISERTIB], for which the % of inhibition in experiment [4] and in [5] was 2.66% throughout.
Turning to `C=CC(=O)Nc1cc(-n2c(=O)ccc3cnc4ccc(-c5ccc(NS(C)(=O)=O)cc5)cc4c32)ccc1C`, the % of control in experiment [6] (at 1 µM) was found to be 99%; in [6] (at 10 µM), 75%.
For the compound `C=CC(=O)Nc1cccc(C(=O)Nc2ccc(Nc3cc(-c4[nH]c(SC)nc4C)ccn3)cc2)c1`, the % of control in [7] (at 1 µM) was 101%; in experiment [7] (at 5 µM), 87%.
Regarding `COc1cc(Nc2nc(C)cc(-c3cnn4nc(OC)ccc34)n2)cc(C(F)(F)F)c1`, the % of control on Ephrin type-A receptor 4 came to 100%.
The term IC50 denotes the point on the concentration scale where inhibition reaches its midpoint. Low values mean greater potency in that assay, high ones weaker potency in that assay. `Cn1cc(Nc2nccc(N3CC4CCC(C3)N4C(=O)[C@@H]3CC3(F)F)n2)cn1` came in with an IC50 in [8] greater than 30 µM.
For `C=CC(=O)Nc1ccc(C(=O)Nc2[nH]nc3c2CN(C(=O)N[C@H](CN(C)C)c2ccccc2)C3(C)C)cc1`, the % of engagement in experiment [9] is -9.7%.
